From ChEMBL document CHEMBL5150007, “Zinc enzymes in medicinal chemistry” (Eur J Med Chem, 2021)
Starred links: 1 amine or outer side, 2 acyl side, 3 side chain; linkers in the order of their positions; H or OH if unused. Residues, ends and D or L forms follow the SMILES beside them. *: point of attachment. CO = O=C([*:1])[*:2]; N(Me)OMe = CON(C)*

Assays:
[1] = Inhibition of farnesyltransferase (unknown origin); design: species or system Homo sapiens
[2] = Inhibition of NDM-1 (unknown origin) using imipenem as substrate by spectrophotometric assay; design: species or system Homo sapiens
[3] = Inhibition of NDM-1 (unknown origin); design: species or system Homo sapiens
[4] = Inhibition of VIM-2 (unknown origin); design: species or system Homo sapiens
Lethal factor [5] = biological target: T1, Lethal factor (Bacillus anthracis, UniProt P15917); assay: Binding affinity to Bacillus anthracis lethal factor assessed as inhibition constant
T1 sequence (P15917 whole entry): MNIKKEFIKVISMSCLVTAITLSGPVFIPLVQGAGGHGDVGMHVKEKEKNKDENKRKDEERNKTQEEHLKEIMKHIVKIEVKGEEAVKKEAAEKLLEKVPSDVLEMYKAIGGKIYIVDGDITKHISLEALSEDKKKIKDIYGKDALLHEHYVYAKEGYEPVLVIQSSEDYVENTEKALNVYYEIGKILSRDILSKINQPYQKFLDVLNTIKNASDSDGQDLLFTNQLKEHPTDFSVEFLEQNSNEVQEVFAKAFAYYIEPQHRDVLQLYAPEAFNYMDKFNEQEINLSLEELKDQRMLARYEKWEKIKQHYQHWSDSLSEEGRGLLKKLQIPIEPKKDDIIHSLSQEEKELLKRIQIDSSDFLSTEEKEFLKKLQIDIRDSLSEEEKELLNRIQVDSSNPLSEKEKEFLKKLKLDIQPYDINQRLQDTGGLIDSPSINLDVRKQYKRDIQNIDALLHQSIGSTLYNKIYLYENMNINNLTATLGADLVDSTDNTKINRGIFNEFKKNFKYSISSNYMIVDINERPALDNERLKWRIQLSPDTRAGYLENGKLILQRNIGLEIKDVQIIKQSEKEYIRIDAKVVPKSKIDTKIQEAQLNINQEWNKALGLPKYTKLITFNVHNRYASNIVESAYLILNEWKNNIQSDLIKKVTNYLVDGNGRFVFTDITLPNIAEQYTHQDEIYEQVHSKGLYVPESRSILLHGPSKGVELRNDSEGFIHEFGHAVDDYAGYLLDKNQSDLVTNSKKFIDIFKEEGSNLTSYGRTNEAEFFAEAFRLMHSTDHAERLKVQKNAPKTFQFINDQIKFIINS

[6] = biological target: Disintegrin and metalloproteinase domain-containing protein 17 (Homo sapiens, UniProt P78536); assay: Inhibition of human ADAM17
Sequence of Disintegrin and metalloproteinase domain-containing protein 17 (P78536 whole entry, the tested form may be a part): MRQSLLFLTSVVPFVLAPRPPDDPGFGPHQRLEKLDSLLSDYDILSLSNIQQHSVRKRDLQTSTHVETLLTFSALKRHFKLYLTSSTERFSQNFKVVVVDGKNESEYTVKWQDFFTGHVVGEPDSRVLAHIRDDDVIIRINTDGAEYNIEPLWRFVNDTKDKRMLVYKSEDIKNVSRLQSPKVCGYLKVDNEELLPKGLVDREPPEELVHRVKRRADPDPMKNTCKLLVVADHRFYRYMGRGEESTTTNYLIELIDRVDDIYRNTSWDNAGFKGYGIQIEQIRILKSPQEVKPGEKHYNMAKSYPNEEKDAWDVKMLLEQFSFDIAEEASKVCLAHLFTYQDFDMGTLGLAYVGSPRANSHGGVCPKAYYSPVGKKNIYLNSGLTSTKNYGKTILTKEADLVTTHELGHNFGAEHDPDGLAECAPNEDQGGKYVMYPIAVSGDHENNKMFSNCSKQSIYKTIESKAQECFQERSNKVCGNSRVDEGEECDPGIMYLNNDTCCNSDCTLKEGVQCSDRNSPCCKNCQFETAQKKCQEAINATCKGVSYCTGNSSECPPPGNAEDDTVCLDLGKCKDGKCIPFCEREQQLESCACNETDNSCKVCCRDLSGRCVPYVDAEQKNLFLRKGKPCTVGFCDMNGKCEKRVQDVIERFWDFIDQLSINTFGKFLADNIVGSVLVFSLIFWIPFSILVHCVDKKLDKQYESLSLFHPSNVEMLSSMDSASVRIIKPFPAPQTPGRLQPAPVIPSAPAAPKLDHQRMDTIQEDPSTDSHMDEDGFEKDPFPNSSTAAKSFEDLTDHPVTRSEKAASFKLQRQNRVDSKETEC

[7] = biological target: T2, Disintegrin and metalloproteinase domain-containing protein 10 (Homo sapiens, UniProt O14672); assay: Inhibition of human ADAM10 using (biotin-SPLAQAVRSSSRTP(3H)S-NH2) as a substrate by streptavidin-coated scintillation proximity assay
T2 sequence (O14672 whole entry): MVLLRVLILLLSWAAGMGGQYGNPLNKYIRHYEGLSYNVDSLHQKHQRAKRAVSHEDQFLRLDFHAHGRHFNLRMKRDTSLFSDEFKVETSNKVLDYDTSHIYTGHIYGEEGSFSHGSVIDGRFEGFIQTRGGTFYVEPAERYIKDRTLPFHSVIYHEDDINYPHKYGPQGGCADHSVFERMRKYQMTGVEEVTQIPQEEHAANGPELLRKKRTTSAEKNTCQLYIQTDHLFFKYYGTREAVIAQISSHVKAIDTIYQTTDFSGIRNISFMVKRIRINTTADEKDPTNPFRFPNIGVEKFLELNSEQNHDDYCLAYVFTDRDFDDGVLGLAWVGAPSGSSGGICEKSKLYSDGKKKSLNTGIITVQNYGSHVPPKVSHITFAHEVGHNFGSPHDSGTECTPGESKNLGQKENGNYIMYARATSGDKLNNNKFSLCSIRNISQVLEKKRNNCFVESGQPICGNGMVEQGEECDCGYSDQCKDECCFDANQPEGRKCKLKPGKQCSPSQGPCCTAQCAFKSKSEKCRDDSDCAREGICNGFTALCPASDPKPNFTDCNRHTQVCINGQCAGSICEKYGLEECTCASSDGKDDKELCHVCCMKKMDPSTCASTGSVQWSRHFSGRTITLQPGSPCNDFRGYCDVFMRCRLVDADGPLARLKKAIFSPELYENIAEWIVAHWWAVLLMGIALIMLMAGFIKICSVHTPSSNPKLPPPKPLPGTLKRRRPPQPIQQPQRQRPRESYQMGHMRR

Adenosine deaminase = biological target: T3, Adenosine deaminase (Homo sapiens, UniProt P00813); assay: Binding affinity to ADA (unknown origin) assessed as inhibition constant
T3 sequence (P00813 whole entry): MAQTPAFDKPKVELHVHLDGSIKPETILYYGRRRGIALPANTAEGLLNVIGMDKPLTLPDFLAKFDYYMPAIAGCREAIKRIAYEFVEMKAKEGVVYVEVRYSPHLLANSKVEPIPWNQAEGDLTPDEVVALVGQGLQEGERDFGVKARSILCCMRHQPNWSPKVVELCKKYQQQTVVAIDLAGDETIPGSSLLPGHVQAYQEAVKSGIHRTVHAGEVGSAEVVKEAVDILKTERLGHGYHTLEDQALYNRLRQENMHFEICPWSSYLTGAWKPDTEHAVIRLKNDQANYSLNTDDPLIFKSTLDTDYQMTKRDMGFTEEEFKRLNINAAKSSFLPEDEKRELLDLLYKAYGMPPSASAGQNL

Lethal factor [8] = biological target: T1, Lethal factor; assay: Inhibition of Bacillus anthracis lethal factor

Work on `CCC(C)[C@@H](CO[C@@H](Cc1ccccc1)C(=O)N[C@@H](CCS(C)(=O)=O)C(=O)O)NC[C@@H](N)CS` (some centres not stated) yielded an IC50 [1] of 240 nM.

For `C[C@@H](CS)C(=O)N1CCC[C@H]1C(=O)O`, the IC50 [2] was 7.9 nM.

`O=C(O)c1nccn1Cc1ccccc1` showed an IC50 [3] of 66700 nM and an IC50 [4] of 0.45 nM.

For `N[C@@H](CN[C@@H](CN[C@@H](CC(=O)O)C(=O)O)C(=O)O)C(=O)O`, the IC50 [3] was 7000 nM.

`CCN(CCCC[C@@H](C[C@@H](OC)c1ccc(F)cc1)C(=O)NO)c1ccc(F)cc1` gave a Ki (Lethal factor [5]) of 0.27 nM.

Work on `CNC(=O)[C@@H](NC(=O)C(CCCc1ccccc1)[C@H](C)N(O)C=O)C(C)(C)C` (some centres not stated) yielded an IC50 [6] of 541 nM and an IC50 [7] of 5.3 nM.

`CON(C)C(=O)N[C@@H](CCCNC(=N)N)C(=O)N[C@@H](CC(C)C)C(=O)N[C@H](C(=O)N[C@@H](CCCNC(=N)N)C(=O)O)C(C)C` ({N(Me)OMe-CO}-RLVR-OH) gave a Ki (Lethal factor [5]) of 6.4 nM.

Compound `CCCCCC[C@H]([C@H](C)O)n1cnc2c(N)ncnc21` [(+)-EHNA] has a Ki (Adenosine deaminase) of 1 nM.

For `O=C(O[C@@H]1Cc2c(O)cc(O)cc2O[C@@H]1c1cc(O)c(O)c(O)c1)c1cc(O)c(O)c(O)c1` [EPIGALOCATECHIN GALLATE], the IC50 (Lethal factor [8]) was 97 nM.

Work on `NC[C@@H]1O[C@H](O[C@H]2[C@@H](O)[C@H](O[C@@H]3[C@@H](O)[C@H](N)C[C@H](N)[C@H]3O[C@H]3O[C@H](CN)[C@@H](O)[C@H](O)[C@H]3N)O[C@@H]2CO)[C@H](N)[C@@H](O)[C@@H]1O` [FRAMYCETIN] yielded a Ki (Lethal factor [5]) of 7 nM.
